According to patent publication US10144706B2 (BRISTOL-MYERS SQUIBB COMPANY, priority 2016, dated 2018):
Like-named read-outs stand apart in the source and are kept apart here.

Molecular target: T1, PD-1/PD-L1 interaction (PD-1-Ig / PD-L1-His) (Homo sapiens, UniProt Q9NZQ7)
T1 construct: hPDL1(18-239)-TVMV-His; TVMV protease site linker (C); made in house; host or cells: HEK293T
Test: PD-1/PD-L1 Homogenous Time-Resolved Fluorescence (HTRF) binding assay
Details: PD-L1-His 10 nM, PD-1-Ig 20 nM, read-out: Range or IC50
Procedure, shortened: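 Human PD-L1-His (10 nM final) was pre-incubated with inhibitor for 15 min, then PD-1-Ig (20 nM final) was added for a further 15 min in dPBS with 0.1% BSA and 0.05% Tween-20. Binding was detected by HTRF using Eu-cryptate anti-Ig (1 nM) and APC anti-His (20 nM).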

T1 sequence (Q9NZQ7 with tags, fused parts or gaps): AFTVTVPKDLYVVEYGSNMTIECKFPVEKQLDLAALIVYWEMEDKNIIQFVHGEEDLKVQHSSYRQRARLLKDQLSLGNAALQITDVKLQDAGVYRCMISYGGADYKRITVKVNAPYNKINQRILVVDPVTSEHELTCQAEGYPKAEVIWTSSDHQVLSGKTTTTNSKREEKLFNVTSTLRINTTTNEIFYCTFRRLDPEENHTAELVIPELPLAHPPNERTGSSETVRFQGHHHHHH

| IC50 (IC50 range class) [nM] | IC50 (numeric IC50) [nM] | SMILES |
| --- | --- | --- |
| 20.1 to 90 |  | Cc1c(COc2cc(OCc3cc(F)cc(F)c3)c(CN[C@@H](CO)C(=O)O)cc2Cl)cccc1-c1cccc(COc2cc(OCc3cc(F)cc(F)c3)c(CN[C@@H](CO)C(=O)O)cc2Cl)c1C [Example 5008, (2S,2′S)-2,2′-((((((2,2′-dimethyl-[1,1′-biphenyl]-3,3′-diyl)bis(methylene))bis(oxy))bis(5-chloro-2-((3,5-difluorobenzyl)oxy)-4,1-phenylene))bis(methylene))bis(azanediyl))bis(3-hydroxypropanoic acid)] |
| 20.1 to 90 |  | N#Cc1cncc(COc2cc(OCc3cccc(-c4cccc(COc5cc(OCc6cncc(C#N)c6)c(CN6CCCCC6)cc5Cl)c4)c3)c(Cl)cc2CN2CCCCC2)c1 [Example 40060] |
| > 10000 |  | Cc1c(OCCCN2CC[C@@H](O)C2)cccc1-c1cccc(C(=O)NCCN2CC[C@@H](O)C2)c1C [Example 3015, N-(2-((R)-3-hydroxypyrrolidin-1-yl)ethyl)-3′-(3-((R)-3-hydroxypyrrolidin-1-yl)propoxy)-2,2′-dimethyl-[1,1′-biphenyl]-3-carboxamide] |
|  | 3180 | Cc1c(OCCCN(Cc2ccccn2)Cc2ccccn2)cccc1-c1cccc(OCCCN2CC[C@@H](O)C2)c1C [Example 2056, (R)-1-(3-((3′-(3-(bis(pyridin-2-ylmethyl)amino)propoxy)-2,2′-dimethyl-[1,1′-biphenyl]-3-yl)oxy)propyl)pyrrolidin-3-ol] |
| 20.1 to 90 |  | CC(=O)NCCNCCCOc1cccc(-c2cccc(OCCCN3CC[C@@H](O)C3)c2C)c1C [Example 2048, (R)—N-(2-((3-((3′-(3-(3-hydroxypyrrolidin-1-yl)propoxy)-2,2′-dimethyl-[1,1′-biphenyl]-3-yl)oxy)propyl)amino)ethyl)acetamide] |
| 20.1 to 90 |  | Cc1c(OCCCN(CCc2cccnc2)C[C@H](O)CO)cccc1-c1cccc(OCCCN(CCc2cccnc2)C[C@H](O)CO)c1C [Example 2102, (2S,2′S)-3,3′-((((2,2′-dimethyl-[1,1′-biphenyl]-3,3′-diyl)bis(oxy))bis(propane-3,1-diyl))bis((2-(pyridin-3-yl)ethyl)azanediyl))bis(propane-1,2-diol)] |
| 1000 to 10000 |  | N#Cc1cncc(COc2cc(OCc3cccc(-c4cccc(COc5cc(OCc6cncc(C#N)c6)c(C(=O)NC6COC6)cc5Cl)c4Cl)c3Cl)c(Cl)cc2C(=O)NC2COC2)c1 [Example 80180] |
|  | 10000 | Cc1c(OCCCN2CC[C@@H](O)C2)cccc1-c1cccc(S(=O)(=O)NCCCN(C)C)c1C [Example 3010, (R)—N-(3-(dimethylamino)propyl)-3′-(3-(3-hydroxypyrrolidin-1-yl)propoxy)-2,2′-dimethyl-[1,1′-biphenyl]-3-sulfonamide] |
| 90.1 to 1000 |  | Cc1c(OCCCN[C@@H](CO)C(C)C)cccc1-c1cccc(OCCCN2CC[C@@H](O)C2)c1C [Example 2055, (R)-1-(3-((3′-(3-(((R)-1-hydroxy-3-methylbutan-2-yl)amino)propoxy)-2,2′-dimethyl-[1,1′-biphenyl]-3-yl)oxy)propyl)pyrrolidin-3-ol] |
| 20.1 to 90 |  | COc1ccccc1N1CCN(CCCOc2cccc(-c3cccc(OCCCN4CC[C@@H](O)C4)c3C)c2C)CC1 [Example 2111, (R)-1-(3-((3′-(3-(4-(2-methoxyphenyl)piperazin-1-yl)propoxy)-2,2′-dimethyl-[1,1′-biphenyl]-3-yl)oxy)propyl)pyrrolidin-3-ol] |
| 0.04 to 20 |  | Cc1c(COc2cc(OCc3cncc(C#N)c3)c(CN3CCCC(C(=O)O)C3)cc2Cl)cccc1-c1cccc(COc2cc(OCc3cncc(C#N)c3)c(CN3CCCC(C(=O)O)C3)cc2Cl)c1C (stereo not shown) [Example 40380] |
| 0.04 to 20 |  | Cc1c(COc2cc(OCc3cncc(C#N)c3)c(Cl)cc2Cl)cccc1-c1cccc(COc2cc(OCc3cncc(C#N)c3)c(CN[C@](C)(CO)C(=O)O)cc2Cl)c1C [Example 70020] |
| 0.04 to 20 |  | Cc1c(COc2cc(OCc3cncc(C#N)c3)c(CN[C@H](CCO)C(=O)O)cc2Cl)cccc1-c1cccc(COc2cc(OCc3cncc(C#N)c3)c(CN[C@H](CCO)C(=O)O)cc2Cl)c1C [Example 41090] |
| 20.1 to 90 |  | Cc1c(COc2cc(OCc3cncc(C#N)c3)c(CN[C@@H](C(=O)O)[C@H](C)OCc3ccccc3)cc2Cl)cccc1-c1cccc(COc2cc(OCc3cncc(C#N)c3)c(CN[C@@H](C(=O)O)[C@H](C)OCc3ccccc3)cc2Cl)c1C [Example 40960] |
| 20.1 to 90 |  | Cc1c(OCCCNC2CCN(CCO)CC2)cccc1-c1cccc(OCCCN2CC[C@@H](O)C2)c1C [Example 2067, (R)-1-(3-((3′-(3-((1-(2-hydroxyethyl)piperidin-4-yl)amino)propoxy)-2,2′-dimethyl-[1,1′-biphenyl]-3-yl)oxy)propyl)pyrrolidin-3-ol] |
| 0.04 to 20 |  | Cc1c(OCCCNC[C@H](O)CO)cccc1-c1cccc(OCCCN[C@H](CO)[C@H](O)c2ccccc2)c1C [Example 2098, (S)-3-((3-((3′-(3-(((1R,2R)-1,3-dihydroxy-1-phenylpropan-2-yl)amino)propoxy)-2,2′-dimethyl-[1,1′-biphenyl]-3-yl)oxy)propyl)amino)propane-1,2-diol] |
| 20.1 to 90 |  | N#Cc1cncc(COc2cc(OCc3cccc(-c4cccc(COc5cc(OCc6cncc(C#N)c6)c(C(=O)N6CCOCC6)cc5Cl)c4Cl)c3Cl)c(Cl)cc2C(=O)N2CCOCC2)c1 [Example 80050] |
| 0.04 to 20 |  | Cc1cc(OCc2cccc(-c3cccc(COc4cc(C)c(CNCCC(=O)O)cc4Cl)c3C)c2C)c(Cl)cc1CNCCC(=O)O [Example 5502, 3,3′-((((((2,2′-dimethyl-[1,1′-biphenyl]-3,3′-diyl)bis(methylene))bis(oxy))bis(5-chloro-2-methyl-4,1-phenylene))bis(methylene))bis(azanediyl))dipropionic acid] |
| 1000 to 10000 |  | N#Cc1cncc(COc2cc(OCc3cccc(-c4cccc(COc5cc(OCc6cncc(C#N)c6)c(C(=O)N6CCSCC6)cc5Cl)c4Cl)c3Cl)c(Cl)cc2C(=O)N2CCSCC2)c1 [Example 80220] |
| 0.04 to 20 |  | CSCCC(NCc1cc(Cl)c(OCc2cccc(-c3cccc(COc4cc(OCc5cncc(C#N)c5)c(CNC(CCSC)C(=O)O)cc4Cl)c3C)c2C)cc1OCc1cncc(C#N)c1)C(=O)O (stereo not shown) [Example 40450] |
| 0.04 to 20 |  | Cc1c(OCCCN2CCCC(CO)C2)cccc1-c1cccc(OCCCN2CCCC(CO)C2)c1C (mixture of isomers) [Example 2026, ((((2,2′-dimethyl-[1,1′-biphenyl]-3,3′-diyl)bis(oxy))bis(propane-3,1-diyl))bis(piperidine-1,3-diyl))dimethanol] |
| 0.04 to 20 |  | Cc1c(OCCCN(C)C)cccc1-c1cccc(OCCCN2CC[C@@H](O)C2)c1C [Example 3007, (R)-1-(3-((3′-(3-(dimethylamino)propoxy)-2,2′-dimethyl-[1,1′-biphenyl]-3-yl)oxy)propyl)pyrrolidin-3-ol] |
| 0.04 to 20 |  | Cc1c(COc2cc(OCc3cncc(C#N)c3)c(CN[C@H](C(=O)O)[C@H](C)O)cc2Cl)cccc1-c1cccc(COc2cc(OCc3cncc(C#N)c3)c(CN[C@H](C(=O)O)[C@H](C)O)cc2Cl)c1C [Example 41110] |
| > 10000 |  | Cc1ccccc1-c1ccc(OCCCN2CC[C@H](O)C2)c(OCCCN2CC[C@H](O)C2)c1 [Example 3021, (3S,3′S)-1,1′-(((2′-methyl-[1,1′-biphenyl]-3,4-diyl)bis(oxy))bis(propane-3,1-diyl))bis(pyrrolidin-3-ol)] |
|  | 6 | CC(=O)c1cc(Cl)c(OCc2cccc(-c3cccc(COc4cc(OCc5cncc(C#N)c5)c(CNC(C)(CO)C(=O)O)cc4Cl)c3C)c2C)cc1OCc1cncc(C#N)c1 (stereo not shown) [Example 60030] |
